Laboratory results published in publication PMC4822341 (Cell Discovery, 2015).
Where “and” joins values, the source holds several entries; their conditions need not be identical. Identical values can stand only once. Values belong to the compound of their own block, whether it stands above or below them.

Experiments:
[1] = target: β2-adrenergic receptor induction; design: method as in PMID 10433509; conditions: A549 cells; cited from earlier work
[2] = tested on: granulocyte macrophage colony-stimulating factor release; design: method as in PMID 10433509; conditions: A549 cells; read-out: IC50 to inhibit granulocyte macrophage colony-stimulating factor release; cited from earlier work
[3] = tested on: IL-6 release from A549 cells; assay: Cytokine inhibition assay, IL-6 release from A549 cells; type: cell-based; conditions: Homo sapiens, TNFα 2 ng ml^-1, read-out: IC50 (suppression of IL-6 release)
Protocol: A549 cells into 24-well plates were split at 40 000 cells/well. After 1 day growth, cells were treated with various steroids 1 h before overnight induction of inflammation by 2 ng ml^–1 TNFα according to literature. Sixteen hours after treatment, cell culture supernatants were subjected to anti-IL-6 Elisa (R&D Quantikine Elisa Human IL-6 Kit) according to the manual.

OVA-induced asthma = assay: OVA-induced mouse asthma model; type: in vivo, Balb/c mice; conditions: for repression of airway hyper-responsiveness (AHR): Balb/c mice; for % repression of AHR: ACH challenge 4 mg kg^-1
Protocol: As described before, 7–9-week-old female Balb/c mice (Taconic) were sensitized on days 0, 7 and 14 by i.p. injection of 50 μg OVA/1 mg alum in a total of 200 μl saline. Control mice received an equal volume of alum only. Mice were lightly anesthetized by isoflurane inhalation and challenged with intranasal OVA (100 μg in 30 μl saline) or saline on days 21–23, and were i.p. injected with different steroids. Twenty-four hours after the last challenge and treatment, pulmonary resistance was measured in response to a range of concentrations of intravenous acetylcholine using the forced oscillation technique with the FlexiVent system (SCIREQ) as previously described. Serum samples were analyzed for OVA-specific IgE using an ELISA (BD Biosciences, clone R35-118). Total and differential cell counts were determined by hemocytometer and by light microscopic evaluation of more than 300 cells per slide as previously described. After lavage, lungs were inflated with 10% buffered formalin to 25 cm H2O and transferred to 10% buffered formalin. Sections (5 μm) were stained with H&E for semi-quantitative assessment of inflammation and PAS for evaluation of mucus production. To quantify inflammation, H&E-stained lung sections were de-identified for blinding and scored for peribronchial and perivascular inflammatory cell infiltration: grade 0, no infiltration; grade 1, <25% of examined area; grade 2, 25–50%; grade 3, 51–75%; and grade 4, >75%. To quantify goblet cell hyperplasia, PAS stained lung sections were de-identified for blinding and scored for the percentage of PAS positive cells among airway epithelial cells: grade 0: none; grade 1 <25% of airway epithelial cells; grade 2, 25–50%; grade 3, 51–75%; and grade 4, >75%.

RAW264.7 cells = assay: Gene expression (microarray and quantitative PCR) in LPS-stimulated RAW264.7 cells; type: cell-based, mouse; conditions: RAW264.7, LPS, steroid 100 nM
Protocol: Mouse macrophage RAW264.7 cells were grown in 6-well plates to reach 80% confluence. The cells were pretreated with different steroids at 100 nM 1 h before overnight induction of inflammation by 1 μg ml^–1 LPS. Total RNA was isolated using a Qiagen mini RNA extraction kit (Valencia, CA, USA). Complementary DNA was synthesized from total RNA with an Invitrogen Superscript cDNA synthesis kit (Carlsbad, CA, USA). Target genes were quantified with a Power SYBR Green Real-Time PCR kit (Carlsbad, CA, USA) (ABI) in a StepOnePlus real-time PCR instrument (Applied Biosystems, Carlsbad, CA, USA). In every case, GAPDH (glyceraldehyde-3-phosphate dehydrogenase) was used as an internal control and data were analyzed by the ΔΔCt method. The specificity of target primers was tested both in a dissociation (melting) curve (Supplementary Figure S4) and against a water control. Primer sequence information is included in Supplementary Figure S4.
RAW264.7 cells were treated with designated steroids at 100 nM 1 h before overnight LPS stimulation of inflammation. Each treatment was duplicated. The following day, RNA samples were isolated using a Qiagen mini RNA extraction kit and applied to the Agilent Whole Mouse Genome 8x60K gene expression platform. Data were analyzed by the limma package in R program. Heat maps were generated by the HeatMap 2 package. Pathway analysis was done via DAVID Bioinformatics Resources 6.7 (NIAID) and Venn diagrams were generated by BioVenn.

[4] = Insulin-tolerance test and plasma insulin level; conditions: 1 mg kg^-1 daily, 7 days
Protocol: DBA/1 mice (Taconic) were weighted just before the experiment. After 4 h fasting, mice were i.p. injected with 0.75 U kg^–1 of insulin (Huamlin R). Blood samples were taken from the tail at time 0 (before insulin injection), 15, 30, 45, 60, 90 and 120 min after injection. Plasma glucose levels were measured using an AlphaTrak glucose meter. All data were plotted as percent of glucose level at time 0. Endogenous insulin levels were measured using the Ultra Sensitive Mouse Insulin ELISA kit (Crystal Chem, Downers Groove, IL, USA).

[5] = Body weight (growth inhibition) of DBA/1 mice; type: in vivo; conditions: 1 mg kg^-1 daily i.p., 2 weeks, 7-week-old mice
Protocol: (§1) Figure 5 Examination of side effects of VSGC12 and FF at the effective dose. (a) Body weight of DBA/1 mice treated with the indicated daily dose of steroids for 2 weeks. Mice body weight was measured at day 0, 7 and 14. (b) Insulin-tolerance test of mice treated with the indicated daily doses of steroids for 7 days. Glucose level was measured at day 7 at various time points before and after insulin injection. Data were plotted as percent of the glucose level of time 0. (c) Plasma insulin levels of mice treated with the indicated daily doses of steroid for 7 days. (d) Spleen size and weight for mice treated with the indicated daily doses of steroid for 2 weeks. (e) Cortical bone thickness of femurs of mice treated with the indicated daily doses of steroid for 2 weeks. (f) Bone stiffness of femurs of mice treated with the indicated daily doses of steroid for 2 weeks. Mouse strain: DBA/1. Each treatment n=5, error bars indicate s.e.m., *P<0.05; **P<0.01; ***P<0.001.

[6] = Spleen size and weight (spleen atrophy); type: in vivo, DBA/1 mice; conditions: 1 mg kg^-1 daily, 2 weeks
Protocol: as §1

[7] = Bone density (μCT) and biomechanics testing of femurs; type: in vivo, DBA/1 mice; conditions: 1 mg kg^-1 daily, 2 weeks
Protocol: Femur bones were collected and scanned by μCT (Skyscan 1172 uCT) for quantification of trabecular and cortical bone parameters. The thresholds for μCT quantification of trabecular and cortical bone parameters were set at 80–100 and 100–110, respectively. μCT analyses of cortical bone parameters were performed on 100-μCT slices (1 mm total) from the middle shaft of femurs; trabecular parameters were assessed in 100-μCT slices (1 mm total) immediately below the distal growth plate of the femur. Following uCT scans, the femurs were individually tested on a TestResources 570 Force Transducer. Bones were thawed in PBS before being tested, to ensure no brittleness was due to freezing. […] Data points were collected at a frequency of 50 Hz and a deflection rate of 0.005 mm s^–1.

GR [8] = target: T1, GR (Homo sapiens, UniProt P04150); assay: NF-κB-Luc repression reporter assay in AD293 cells; type: cell-based; conditions: TNFα 2 ng ml^-1
T1 construct: expressed in transfected cells; host or cells: AD293
T1 sequence (P04150 1-777): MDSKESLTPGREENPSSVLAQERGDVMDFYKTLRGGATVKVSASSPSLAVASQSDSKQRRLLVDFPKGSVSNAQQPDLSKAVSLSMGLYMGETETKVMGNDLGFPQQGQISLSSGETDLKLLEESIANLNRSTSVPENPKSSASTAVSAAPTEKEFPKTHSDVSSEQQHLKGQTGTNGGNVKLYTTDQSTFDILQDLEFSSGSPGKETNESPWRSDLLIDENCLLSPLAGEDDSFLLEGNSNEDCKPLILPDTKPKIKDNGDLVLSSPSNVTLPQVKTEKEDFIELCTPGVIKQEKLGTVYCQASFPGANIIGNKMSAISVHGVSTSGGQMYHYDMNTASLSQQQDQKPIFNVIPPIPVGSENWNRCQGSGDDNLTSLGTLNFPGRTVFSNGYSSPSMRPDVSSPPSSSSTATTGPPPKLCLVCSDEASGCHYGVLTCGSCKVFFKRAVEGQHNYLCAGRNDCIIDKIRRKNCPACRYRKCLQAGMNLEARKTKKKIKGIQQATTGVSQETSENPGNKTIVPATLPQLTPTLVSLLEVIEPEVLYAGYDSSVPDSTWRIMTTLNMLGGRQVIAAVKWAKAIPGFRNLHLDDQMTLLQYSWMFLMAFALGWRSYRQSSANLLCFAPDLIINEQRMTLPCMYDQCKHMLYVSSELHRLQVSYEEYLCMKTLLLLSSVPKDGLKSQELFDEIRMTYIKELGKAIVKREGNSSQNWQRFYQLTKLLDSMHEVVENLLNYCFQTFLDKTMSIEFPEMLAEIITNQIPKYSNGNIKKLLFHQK
Protocol: (§2) Similar to previous reports, for induction 100 ng pHHLuc (MMTV-Luc) plasmid, 0.1 ng pRShGR together with 5 ng phRGtkRenilla were transfected by X-tremeGENE 9 (Roche) into AD293 cells per well in 24-well plate. For transrepression, 10 ng AP-1-Luc or 10ng pNF-κB-luc, 100 ng pRShGR and 5 ng phRGtkRenilla were transfected into AD293 cells per well. We used the same transfection protocol for the MR and PR assays, except of the use of 0.1 ng MR or PR plasmid to substitute GR. One day after transfection, for induction, cells were directly treated by steroids for 16 h; for repression, cells were treated with either PMA at 0.6 ng ml^–1 (for AP-1 reporter) or TNFα at 2 ng ml^–1 (for NF-κB reporter), together with various steroids. Cells were collected by addition of 1× Passive Lysis Buffer (Promega, Madison, WI, USA), and luciferase activity was assayed by the Dual-Glo Luciferase system (Promega). Data were plotted as firefly luciferase activity normalized to Renilla luciferase activity in Relative Luciferase Units.
Error bars indicate SD, n=3.

GR [9] = target: T1, GR; assay: In vitro H3-Dex competition GR ligand-binding assay; conditions: H3-DEX 15 nM, GR cytosol
Excerpt: The in vitro GR binding assay is similar to the one described previously. […] Data were plotted as a standard competition curve by GraphPad Prism 5.

GR [10] = target: T1, GR; assay: AP-1-Luc repression reporter assay in AD293 cells; type: cell-based; conditions: AP-1 reporter, PMA 0.6 ng ml^-1
Protocol: as §2

GR [11] = target: T1, GR; conditions: cited from earlier work
GR [12] = target: T1, GR; assay: MMTV-Luc induction reporter assay in AD293 cells; type: cell-based; conditions: 16 h
Protocol: as §2

Structure (SMILES): CCC(=O)O[C@]1(C(=O)SCF)[C@H](C)C[C@H]2[C@@H]3C[C@H](F)C4=CC(=O)C=C[C@]4(C)[C@@]3(F)[C@@H](O)C[C@@]21C [FP, fluticasone propionate]
EC50 [1]: 1.1 nM
IC50 [2]: 0.018 nM

IC50 [3]: 0.8 nM
Structure (SMILES): C[C@@H]1C[C@H]2[C@@H]3CCC4=CC(=O)C=C[C@]4(C)[C@@]3(F)[C@@H](O)C[C@]2(C)[C@@]1(O)C(=O)CO [DEX, dexamethasone, reference compound]
infiltration of immune responsive cells into the lungs (total and differential cell count) (OVA-induced asthma; 1 mg kg^-1 i.p.): only a mild effect
repression of airway hyper-responsiveness (AHR) (OVA-induced asthma; 1 mg kg^-1 i.p.): neither VSG22 nor DEX can effectively repress the airway hyper-responsiveness

IC50 [3]: 0.03 nM
atrophy of the spleen [6]: dramatic shrinkage of the spleen
Structure (SMILES): C[C@@H]1C[C@H]2[C@@H]3C[C@H](F)C4=CC(=O)C=C[C@]4(C)[C@@]3(F)[C@@H](O)C[C@]2(C)[C@@]1(OC(=O)c1ccco1)C(=O)SCF [FF, fluticasone furoate, reference compound]
% repression of total differentiated cells (OVA-induced asthma; 0.125 mg/kg): 14%
% repression of AHR (OVA-induced asthma; 0.125 mg/kg): < 28% and 28%
% repression of total differentiated cells (OVA-induced asthma; 0.25 mg/kg): 30%
% repression of AHR (OVA-induced asthma; 0.25 mg/kg): < 35% and 34%
infiltration of immune responsive cells into the lungs (total and differential cell count) (OVA-induced asthma; 1 mg kg^-1 i.p.): strongly repressed the infiltration of immune responsive cells into the lungs
repression of airway hyper-responsiveness (AHR) (OVA-induced asthma; 1 mg kg^-1 i.p.): strongly suppress the AHR to the basal level
histology score, PAS staining (OVA-induced asthma; 1 mg kg^-1 i.p., grade 0-4): 1.5
histology score, hematoxylin and eosin staining (OVA-induced asthma; 1 mg kg^-1 i.p., grade 0-4): 0.83
% repression of AHR (OVA-induced asthma; 1 mg/kg, OVA+DMSO 0, saline 100): 95%
% repression of total differentiated cells (OVA-induced asthma; 1 mg/kg, saline 100, OVA+DMSO 0): 94%
minimal dose to maximally repress the inflammation (maximal effective dose) (OVA-induced asthma; judged from AHR, i.p.): 1 mg kg^–1
OVA-IgE levels (OVA-induced asthma; lower doses (0.25, 0.125, 0.0625 mg kg^-1)): unexpectedly higher than the vehicle control
inhibition activity of pro-inflammatory cytokines (microarray, normalized to DEX) (RAW264.7 cells): much stronger inhibition activity than DEX
insulin resistance in insulin-tolerance test [4]: hyper-insulin resistance
plasma (endogenous) insulin level [4]: dramatic increase of the endogenous insulin level
growth inhibition (body weight) [5]: significant growth inhibition
bone strength (stiffness) of femurs [7]: dramatic decrease of bone strength in terms of stiffness
cortical bone thickness of femurs ([7]; μCT): dramatic decrease of the cortical bone thickness

Structure (SMILES): CON(C)C(=O)C1(OC(=O)c2ccco2)CCC2C3CCC4=Cc5c(cnn5-c5ccccc5)CC4(C)C3C(O)CC21C (stereo not drawn) [VSG22]
IC50 [3]: 0.07 nM
repression of airway hyper-responsiveness (AHR) (OVA-induced asthma; 1 mg kg^-1 i.p.): neither VSG22 nor DEX can effectively repress the airway hyper-responsiveness
IC50 (GR [8]): 0.1 nM
IC50 (GR [9]): 4.1 nM
inhibition activity of pro-inflammatory cytokines (microarray, normalized to DEX) (RAW264.7 cells): much stronger inhibition activity than DEX
IC50 (GR [10]): 0.04 nM
increase in potency relative to the original backbone VSG24 (GR [11]): more than 1 000 fold
EC50 (GR [12]): 0.74 nM
